# According to publication PMC8469417, “Is It Possible to Create Antimicrobial Peptides Based on the Amyloidogenic Sequence of Ribosomal S1 Protein of P. aeruginosa?” (International Journal of Molecular Sciences, 2021):
# “Also recorded” adds a separate entry of the source. Where a name gives a salt, the structure may show the parent alone. Ends that are not written are not given here.
# How the values were obtained:
# [1] = test system: P. aeruginosa strain ATCC 28753; type: cell-based, Pseudomonas aeruginosa; conditions: 10 µL drops on LB 0.75% agar, 2% DMSO, 12 h, 37 °C
# Method: (§1) The R23R, R23L, R23R*, R23L* peptides and an antibiotic (gentamicin sulfate) were dissolved in 100% DMSO and solutions were prepared to test their activity.
# (§2) The P. aeruginosa strain ATCC 28753 was inoculated with a wire loop in 5 mL of LB medium and was incubated at 37 °C. After 12 h, plastic Petri dishes were poured with LB medium (about 5 mL) with 0.75% agar. Before pouring, 50 μL of an overnight culture of the test bacteria was added to each dish. The R23R, R23L, R23R*, and R23L* peptides were finally dissolved in 2% (volume/volume) DMSO and was tested with different concentrations with gentamicin sulfate as control of antimicrobial effect. The medium was dried and 10 μL of the prepared peptides were applied to it in accordance with the labeling. Then the dishes were placed in a thermostat and incubated for 12 h at a temperature of 37 °C. Antimicrobial activity was recorded by the presence of transparent zones of no growth around drops with peptide.
# [2] = test system: human diploid fibroblasts; assay: Cytotoxicity assay, human fibroblasts; type: cell-based; conditions: up to 8 µM, 24 h; resazurin assay, calcein-AM / propidium iodide staining, triplicate
# Method: (§3) Cell viability was estimated as described previously by resazurin cell viability assay. Each assay was done in triplicate. All measurements were carried out on the control samples that were not treated with cytotoxic substances. We used human diploid fibroblasts and human breast duct carcinoma BT474 cells obtained from the American Type Cell Culture Collection (Manassas, Virginia, VA, USA). BT474 cells were cultured in DMEM medium (Sigma-Aldrich, St. Louis, MO, USA) supplemented with 10% fetal bovine serum (Gibco, Waltham, MA, USA), 40 μg/mL gentamicin sulfate (Sigma-Aldrich, St. Louis, MO, USA), at 37° C, under conditions of 5% content CO2 in the air. The analysis of living and dead cells was carried out using BD Accuri C6 flow cytometer (BD Bioscience, San Jose, CA, USA).
# [3] = test system: human breast duct carcinoma BT474 cells; assay: Cytotoxicity assay, BT474 cells; type: cell-based; conditions: up to 8 µM, 24 h; resazurin assay, calcein-AM / propidium iodide staining, triplicate
# Method: as §3
# [4] = test system: P. aeruginosa strain PA103; assay: Inhibition zone assay on agar, strain PA103; type: cell-based, Pseudomonas aeruginosa; conditions: 24 h
# Method: as §1
# The culture of the studied bacteria (P. aeruginosa strain PA103) was diluted 10 times in Luria-Bertani (LB) medium with non-solidified 0.75% agar (w/w) on sterile Petri dishes. […]
# [5] = test system: P. aeruginosa strain PA103; assay: Broth microdilution, strain PA103; type: cell-based, Pseudomonas aeruginosa; conditions: LB medium, 2% DMSO, 24 h, 37 °C, 600 nm
# Method: The R23R, R23L, R23R*, R23L* peptides and an antibiotic (gentamicin sulfate) were dissolved in 100% DMSO and solutions were prepared with a final DMSO concentration of 2% (volume/volume) to test their activity.
# Stationary culture of P. aeruginosa strain PA103 was diluted 100 times in fresh LB medium with peptides R23R and R23L or gentamicin sulfate (positive control) at various concentrations. After 24 h at 37 °C co-incubation bacterial cells with peptides, the optical densities of the cultures were measured at a wavelength of 600 nm in a plate reader iMac (BioRad Laboratories, Hercules, CA, USA). Each test was carryout in three replicates.
# In the next experiment to prepare a stationary culture of P. aeruginosa, strain PA103, a colony was inoculated from a Petri dish in 1.5 mL of liquid LB medium and set to grow for 24 h at 37 °C and with stirring at 180 rpm. In the experiment, we used a culture with an initial concentration of ≈10^6–10^7 CFU/mL (10 μL), sterile LB medium (80 μL), peptides R23R* and R23L* diluted in 20% (volume/volume) DMSO or the antibiotic gentamicin sulfate as a positive control (10 μL). […] Optical density was measured in a plate reader iMac (BioRad Laboratories, Hercules, CA, USA) at a wavelength of 600 nm every hour from 0 h to 24 h. Each sample is measured in duplicate.
# [6] = test system: P. aeruginosa strain ATCC 9027; assay: Antimicrobial test on agar, strain ATCC 9027; type: cell-based, Pseudomonas aeruginosa
# Method: as §1, §2
# Studies with the P. aeruginosa strain ATCC 9027 were carried out similarly to the P. aeruginosa strain ATCC 28753. The exception was the amount of LB medium. Sterile plastic Petri dishes were filled with LB medium (about 25 mL) with 0.75% agar and 250 µL of an overnight culture of the test bacteria was added to each dish.
# [7] = electron microscopy and fluorescence of thioflavin T; cited from earlier work
# Source text: In accordance with the strategy presented in Figure 1, we developed hybrid peptides that contained a cell penetrating peptide (CPP) (fragment of Tat-peptide) at the N-termini and an amyloidogenic sequence at the C-termini, which was predicted using bioinformatics tools. The two sites were linked by four glycines. Thus, the construction of the fusion peptide was as follows: “CPP”+”linker GGGG”+ “predicted amyloidogenic-fragment”. The LHITDMAWKR and ITDFGIFIGL sequences were used as amyloidogenic fragments.
compound,measurement,setting,value
RKKRRQRRRGGGGITDFGIFIGL [R23L],MIC,[1],about 300 µM
same,cytotoxic effect / cell viability (in words),[2],remained alive; also recorded: did not have a toxic effect
same,cytotoxic effect / cell viability (in words),[3],remained alive; also recorded: did not have a toxic effect
CNC(C)C1CCC(N)C(OC2C(N)CC(N)C(OC3OCC(C)(O)C(NC)C3O)C2O)O1 (centres unmarked) [gentamicin sulfate],MIC,"[4]; Pseudomonas aeruginosa, PA103, drops on LB 0.75% agar, 20% DMSO, zones of inhibition, read-out: minimum inhibitory concentration (MIC)",170 µM
same,Optical density,[5]; 174 µM,zero
same,Optical density,[5]; 1740 µM,zero
RKKRRQRRRGGGGLHITDMAWKR [R23R],MIC,[1],about 300 µM
same,cytotoxic effect / cell viability (in words),[2],remained alive; also recorded: did not have a toxic effect
same,cytotoxic effect / cell viability (in words),[3],remained alive; also recorded: did not have a toxic effect
"RKKRRQRRRGG-Sar [R12-Sar, CPP fragment with GG-Sar, without amyloidogenic part]",antimicrobial activity on agar (in words),"[4]; drops on LB agar, b51 states it for bacteria grown on agar in general",did not exhibit antimicrobial activity
same,antibacterial properties on agar,[4]; peptide 6.56 µM,Non-AMP
same,antibacterial properties on agar,[4]; peptide 65.6 µM,Non-AMP
same,antibacterial properties on agar,[4]; peptide 656 µM,Non-AMP
same,antibacterial properties on agar,[4]; peptide 6560 µM,Non-AMP
same,antimicrobial activity on agar (in words),"[6]; drops on LB 0.75% agar, 3.75-3750 µM tested, zones of inhibition",did not exhibit antimicrobial activity
same,antibacterial properties on agar,[6]; peptide 3.75 µM,Non-AMP
same,antibacterial properties on agar,[6]; peptide 37.5 µM,Non-AMP
same,antibacterial properties on agar,[6]; peptide 375 µM,Non-AMP
same,antibacterial properties on agar,[6]; peptide 3750 µM,Non-AMP
ITDFGIFIGL [amyloidogenic fragment from the fifth domain of ribosomal S1 protein of P. aeruginosa],amyloid-like properties (in words),[7],exhibited amyloid-like properties
